Article PMC8618917 (Pharmaceutics, 2021)
Read-outs that look alike come from different tables or passages of the source.

Tests used:
[1] = system: SARS-CoV; experiment: microbe, parasite or virus in culture; type: cell-based; settings: read-out: IC50, inhibition of SARS-CoV infection
[2] = Plasma protein binding, text summary over mouse and rat; settings: in mouse and rat
[3] = Liver microsomal metabolic stability, human; settings: 1 μM compound, liver microsomes, 30 min
[4] = Liver microsomal metabolic stability, rat; settings: 1 μM compound, liver microsomes, 30 min
[5] = in vitro; settings: human
[6] = Liver microsomal stability, text summary over mouse, rat and human; settings: rat, human, liver microsomes
[7] = Five-day repeated dose toxicity study; settings: mice; for Death / Time of 100% death after administration: intraperitoneal 10 mg/kg/day
[8] = Plasma protein binding, rat (rapid equilibrium dialysis)
[9] = Rat pharmacokinetic study
[10] = system: MERS-CoV; experiment: microbe, parasite or virus in culture; type: cell-based; settings: for IC50: read-out: IC50, inhibition of MERS-CoV infection
[11] = Liver microsomal metabolic stability, mice; settings: 1 μM compound, liver microsomes, 30 min
[12] = system: SARS-CoV-2; experiment: microbe, parasite or virus in culture; type: cell-based; settings: read-out: IC50, inhibition of SARS-CoV-2 infection
[13] = system: MERS-CoV; experiment: microbe, parasite or virus in culture; type: cell-based; settings: for IC50: read-out: IC50, MERS-CoV virus-induced cytopathic effect
[14] = system: CYP450 isozymes; experiment: CYP450 inhibition, text summary over isozymes
[15] = Plasma protein binding, mice (rapid equilibrium dialysis); settings: mouse
[16] = system: MERS-CoV, SARS-CoV, and SARS-CoV-2; experiment: organism not typed; type: cell-based
[17] = Severe acute respiratory syndrome coronavirus, Vero
[18] = intraperitoneal 10 mg/kg/day for 5 days
[19] = male, Sprague-Dawley, plasma, iv, 1 mg/kg
[20] = male, Sprague-Dawley, plasma, po, 2 mg/kg
[21] = Middle East respiratory syndrome-related coronavirus, Vero, 24 h
[22] = Severe acute respiratory syndrome coronavirus 2, Vero
[23] = Middle East respiratory syndrome-related coronavirus, Calu-3, 72 h
[24] = intraperitoneal 2 mg/kg/day, data not shown
[25] = read-out: IC50, anti-coronavirus activity (range over both compounds and the viruses)

Row | Structure (SMILES) | IC50 [1, 17] [nM] | IC50 [1] [nM] | CC50 [5] [nM] | Survival [7, 18] [%] | IC50 [10, 21] [nM] | IC50 [12, 22] [nM] | IC50 [12] [nM] | IC50 [13, 23] [nM] | IC50 [13] [nM] | Survival [7, 24] [%] | Death [7] [%] | Time of 100% death after administration [7] [days] | Selectivity index (SI) [13] | also measured
1 | C[C@]12CC[C@H](O)C[C@@]1(O)CC[C@@H]1[C@@H]2CC[C@]2(C)[C@@H](c3ccc(=O)oc3)CC[C@]12O [telocinobufagin] | 71.2 | 71 ± 2 | > 50000 | 100 | 27 | 142 | 142 ± 2 | 464 | 465 | – | – | – | – | PPB rate [2]: 96–97%; MS (% of Remaining), Human [3]: 15.1%; MS (% of Remaining), Rat [4]: 31.9%; remaining at 0.5 h, 1 μM [6]: 15 to 30%; fraction unbound at 4 h, 5 μM [8]: 0.032; Ft (oral bioavailability) ([9]; P.O., 2 mg/kg): 33.2%; AUC [9, 19]: 604 ± 159 ng·h/mL; Vd [9, 19]: 0.275 ± 0.169 L/kg; clearance [9, 19]: 28.8 mL/min/kg; half-life [9, 19]: 13.5 ± 1.2 min; AUC [9, 20]: 488 ± 204 ng·h/mL; Cmax [9, 20]: 537 ± 227 ng/mL; Tmax [9, 20]: 20 ± 8.64 min; half-life [9, 20]: 30.6 ± 24.4 min; bioavailability ([9]; male, Sprague-Dawley, plasma, po, 2 mg/kg, Ft (oral bioavailability), P.O.): 33%; MS (% of Remaining), Mice [11]: 21.7%; inhibition at 10 µM [14]: 1.4 to 21%; fraction unbound at 4 h, 5 μM [15]: 0.022
2 | C[C@]12CC[C@H](O)C[C@H]1CC[C@@H]1[C@@H]2CC[C@]2(C)[C@@H](c3ccc(=O)oc3)CC[C@]12O [bufalin] | 16 | – | > 50000 | – | 18 | 19 | – | 544 | 544 | 100 | 100 | 1 | > 91.9 | IC50 ([16]; read-out: IC50, anti-SARS-CoV and SARS-CoV-2 activity (range over both viruses)): 16 to 19 nM
3 | C[C@]12CC[C@H](O)C[C@H]1CC[C@@H]1[C@@H]2CC[C@]2(C)[C@@H](c3ccc(=O)oc3)C[C@H]3O[C@]132 [resibufogenin] | 1360 ± 59 | – | > 50000 | – | 1610 | 1610 ± 63 | – | 16000 | – | – | – | – | > 3.1 | IC50 [16, 25]: 231 to 1610 nM
4 | CC(=O)O[C@H]1[C@H]2O[C@]23[C@@H]2CC[C@@H]4C[C@@H](O)CC[C@]4(C)[C@H]2CC[C@]3(C)[C@H]1c1ccc(=O)oc1 [cinobufagin] | 60.9 | 60 ± 2 | > 50000 | – | 17 | 72.2 | 72 ± 1 | 616 | 616 | 100 | 100 | 2 | – | fraction unbound at 4 h, 5 μM ([2]; mouse, rat, plasma, PPB rate): 0.1 to 0.22; MS (% of Remaining), Human [3]: 2.99%; MS (% of Remaining), Rat [4]: 4.40%; remaining at 0.5 h, 1 μM [6]: < 5%; fraction unbound at 4 h, 5 μM [8]: 0.218; Time within which all rats (n = 3) died ([9]; 1 mg/kg IV injection, data not shown): ≤ 10 min; Detection in plasma after PO injection ([9]; 30 min after PO injection, 2 mg/kg, data not shown): not detected; MS (% of Remaining), Mice [11]: 0.18%; inhibition at 10 µM [14]: 4 to 46%; fraction unbound at 4 h, 5 μM [15]: 0.092
5 | CC(=O)O[C@H]1C[C@]2(O)[C@@H]3CC[C@@H]4C[C@@H](O)CC[C@]4(C)[C@H]3CC[C@]2(C)[C@H]1c1ccc(=O)oc1 [bufotalin] | 27 | – | > 50000 | 100 | 63 | 72.9 | 72 ± 1 | 1630 | – | – | – | – | > 30.7 | –
6 | CC(=O)O[C@H]1[C@H]2O[C@]23[C@@H]2CC[C@]4(O)C[C@@H](O)CC[C@]4(C)[C@H]2CC[C@]3(C)[C@H]1c1ccc(=O)oc1 [cinobufotalin] | 429 | 429 ± 17 | > 50000 | 100 | 230 | 399 | 399 ± 8 | 3960 | – | – | – | – | > 12.6 | IC50 [16, 25]: 231 to 1610 nM; IC50 [10]: 231 ± 14 nM
7 | C[C@H]1O[C@@H](O[C@H]2[C@@H](O)C[C@H](O[C@H]3[C@@H](O)C[C@H](O[C@H]4CC[C@@]5(C)[C@H](CC[C@@H]6[C@@H]5CC[C@]5(C)[C@@H](C7=CC(=O)OC7)CC[C@]65O)C4)O[C@@H]3C)O[C@@H]2C)C[C@H](O)[C@@H]1O [digitoxin, Digitoxin] | 62.1 | 62 ± 1 | > 50000 | – | 67 | 59.9 | 59 ± 1 | 1500 | – | 100 | 100 | 4 | > 33.4 | Selectivity index (SI, CC50/IC50) [10]: > 147.9
